Target: T1, ΔF508-CFTR (Homo sapiens, UniProt P13569, DEL508-508)
T1 construct: expressed in transfected cells; host or cells: CFSMEo- (human CF submucosal gland epithelial cells, ΔF508/Q2X), transiently transfected by nucleofection
Test: ΔF508-CFTR-HRP trafficking assay (cell surface expression of ΔF508-CFTR)
Format: cell-based
Conditions: CFSMEo- cells transiently transfected with ΔF508-CFTR-HRP; test agent 3 μM, 48 h; HRP chemiluminescence
Source text: Test agents were screened for their effect on cell surface expression of ΔF508-CFTR using the ΔF508-CFTR-HRP trafficking assay. For this assay, a ΔF508-CFTR expression construct was designed with an in-frame insertion of a horseradish peroxidase (HRP) tag into the 4th extracellular loop of CFTR. The HRP tag would be presented extracellularly, in cells transiently transfected with the ΔF508-CFTR-HRP construct, following correction of the ΔF508-CFTR trafficking defect. The quantity of ΔF508-CFTR-HRP expressed on the plasma membrane could therefore be determined by measuring an HRP-dependent signal after the application of a cell-impermeable HRP substrate.
In brief, CF submucosal gland epithelial cells (CFSMEo-), derived from the airways of a CF patient (ΔF508/Q2X) and provided by Dr. Dieter Gruenert, University of California-San Francisco, were cultured at 37° C. with 5% CO2 in minimum essential medium (MEM) with Earle's salt and nonessential amino acids, supplemented with 10% (volume per volume [v/v]) fetal bovine serum, 2 mM L-glutamine and 1× (v/v) penicillin/streptomycin and grown in tissue culture-treated flasks coated with an extracellular matrix (ECM) cocktail consisting of 10 μg/mL human fibronectin, 30 μg/mL bovine collagen type I, and 100 μg/mL bovine serum albumin in LHC basal medium. These CFSMEo^− cells were transiently transfected with 4 μg of the ΔF508-CFTR-HRP expression construct using the Lonza 4D-Nucleofector Core unit (Lonza, Catalogue No. AAF-1002B) with the X unit (Lonza, Catalogue No. AAF-1002X) and SF Cell Line 4D-Nucleofector X Kit L (Lonza, Catalogue No. V4XC-2024) according to the manufacturer's instructions and plated at 1.2×10^4 cells/well onto collagen-coated, 96-well plates (Corning Inc.). Twenty-four h post-transfection, cells were treated with test agents, solubilized in DMSO at a concentration of 3 μM in replicates of 3, and allowed to incubate for 48 h. To detect HRP expression, cell culture media was removed, cells were washed with PBS and 100 μL of Luminata Forte HRP chemiluminescent substrate (EMD Millipore, Burlington, MA) was added to each well. Following a 5-minute incubation, chemiluminescence was measured in relative luminescent units (RLUs) using an EnVision plate reader (Perkin Elmer, Waltham, MA).
The ΔF508-CFTR-HRP trafficking data was normalized to the vehicle treated control (0.3% DMSO), followed by calculation of the mean, standard deviation, and standard error. If the test agent increased cell surface expression of ΔF508-CFTR-HRP relative to the vehicle-treated control, then that test agent was considered a ΔF508-CFTR corrector. Based on the description above, the biological activity of the examples in this disclosure is collected in Table 2.

T1 sequence (P13569 with tags, fused parts or gaps DEL508-508): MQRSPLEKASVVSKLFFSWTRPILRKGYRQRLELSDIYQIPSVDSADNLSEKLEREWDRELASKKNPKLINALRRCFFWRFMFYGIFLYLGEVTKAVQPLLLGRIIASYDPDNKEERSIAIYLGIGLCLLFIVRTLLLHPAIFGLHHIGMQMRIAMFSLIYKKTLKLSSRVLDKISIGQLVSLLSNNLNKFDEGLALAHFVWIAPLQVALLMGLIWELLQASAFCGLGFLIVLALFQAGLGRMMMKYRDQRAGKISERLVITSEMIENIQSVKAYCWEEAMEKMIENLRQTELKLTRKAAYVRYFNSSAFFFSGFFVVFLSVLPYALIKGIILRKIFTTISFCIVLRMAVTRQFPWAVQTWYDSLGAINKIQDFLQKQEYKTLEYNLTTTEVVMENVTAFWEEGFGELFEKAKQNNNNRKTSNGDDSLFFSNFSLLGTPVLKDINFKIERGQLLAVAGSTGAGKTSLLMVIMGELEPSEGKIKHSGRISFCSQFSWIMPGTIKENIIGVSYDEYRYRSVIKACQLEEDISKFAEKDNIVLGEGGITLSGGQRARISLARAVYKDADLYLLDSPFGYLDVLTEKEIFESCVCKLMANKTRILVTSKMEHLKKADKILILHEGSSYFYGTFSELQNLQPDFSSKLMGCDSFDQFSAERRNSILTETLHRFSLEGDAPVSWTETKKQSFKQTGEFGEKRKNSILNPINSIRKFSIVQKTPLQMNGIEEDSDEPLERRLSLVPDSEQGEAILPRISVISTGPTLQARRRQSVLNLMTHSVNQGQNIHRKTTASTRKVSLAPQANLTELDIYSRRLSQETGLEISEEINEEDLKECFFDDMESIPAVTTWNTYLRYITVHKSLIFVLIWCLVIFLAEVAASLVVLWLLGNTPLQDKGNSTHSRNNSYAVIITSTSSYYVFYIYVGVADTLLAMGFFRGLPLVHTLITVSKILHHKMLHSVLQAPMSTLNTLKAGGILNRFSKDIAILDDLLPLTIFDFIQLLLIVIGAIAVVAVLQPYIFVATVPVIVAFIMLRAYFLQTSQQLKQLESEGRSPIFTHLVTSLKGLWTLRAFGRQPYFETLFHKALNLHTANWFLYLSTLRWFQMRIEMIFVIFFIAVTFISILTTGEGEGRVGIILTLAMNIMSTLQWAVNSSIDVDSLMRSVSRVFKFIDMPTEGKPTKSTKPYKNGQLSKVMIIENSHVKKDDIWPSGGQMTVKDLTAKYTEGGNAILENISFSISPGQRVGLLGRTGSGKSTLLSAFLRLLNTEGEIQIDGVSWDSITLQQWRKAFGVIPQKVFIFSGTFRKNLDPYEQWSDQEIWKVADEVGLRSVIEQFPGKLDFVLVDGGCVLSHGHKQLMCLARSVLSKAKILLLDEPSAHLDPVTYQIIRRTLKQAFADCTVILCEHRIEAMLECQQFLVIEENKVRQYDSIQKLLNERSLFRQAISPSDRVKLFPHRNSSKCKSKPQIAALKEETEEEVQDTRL

RLUs: ΔF508-CFTR-HRP trafficking data normalized to the vehicle treated control (0.3% DMSO)	Compound
C (RLU 0.0 μM-3.5 μM)	C[C@H](Nc1cc(-n2nc(C(F)(F)F)c3c2[C@H](OC24CC(C(=O)O)(C2)C4)CCC3)ccc1F)c1cc2c(cc1F)OC(F)(F)O2 (single isomer, unassigned) [96 (P2)]
C (RLU 0.0 μM-3.5 μM)	C[C@H](Nc1cccc(-n2nc(C(F)(F)F)c3c2[C@@H](OC24CC(C(=O)O)(C2)C4)CCC3)c1)c1cc2c(cc1F)OC(F)(F)O2 (single isomer, unassigned) [97 (P1)]
C (RLU 0.0 μM-3.5 μM)	C[C@H](Nc1cccc(-n2nc(C(F)(F)F)c3c2[C@H](OC24CC(C(=O)O)(C2)C4)CCC3)c1)c1cc2c(cc1F)OC(F)(F)O2 (single isomer, unassigned) [97 (P2)]
C (RLU 0.0 μM-3.5 μM)	C[C@H](Nc1ccc(F)c(-n2nc(C(F)(F)F)c3c2[C@@H](OC24CC(C(=O)O)(C2)C4)CCC3)c1)c1cc2c(cc1F)OC(F)(F)O2 (single isomer, unassigned) [98 (P1)]
C (RLU 0.0 μM-3.5 μM)	C[C@H](Nc1ccc(F)c(-n2nc(C(F)(F)F)c3c2[C@H](OC24CC(C(=O)O)(C2)C4)CCC3)c1)c1cc2c(cc1F)OC(F)(F)O2 (single isomer, unassigned) [98 (P2)]
C (RLU 0.0 μM-3.5 μM)	C[C@H](Nc1ccc(F)c(-n2nc(C(F)(F)F)c3c2[C@@H](OC24CC(C(=O)O)(C2)C4)CCC3)c1)c1ccc2c(c1)OC(F)(F)O2 (single isomer, unassigned) [99 (P1)]
C (RLU 0.0 μM-3.5 μM)	C[C@H](Nc1ccc(F)c(-n2nc(C(F)(F)F)c3c2[C@H](OC24CC(C(=O)O)(C2)C4)CCC3)c1)c1ccc2c(c1)OC(F)(F)O2 (single isomer, unassigned) [99 (P2)]
A (RLU 5.0 μM-10 μM)	C[C@H](Nc1cccc(-n2nc(C(F)(F)F)c3c2[C@@H](OC24CC(C(=O)O)(C2)C4)CCC3)n1)c1ccc2c(c1)OC(F)(F)O2 (single isomer, unassigned) [100 (P1)]
C (RLU 0.0 μM-3.5 μM)	C[C@H](Nc1cccc(-n2nc(C(F)(F)F)c3c2[C@H](OC24CC(C(=O)O)(C2)C4)CCC3)n1)c1ccc2c(c1)OC(F)(F)O2 (single isomer, unassigned) [100 (P2)]
C (RLU 0.0 μM-3.5 μM)	C[C@H](Nc1nc(-n2nc(C(F)(F)F)c3c2[C@@H](OC24CC(C(=O)O)(C2)C4)CCC3)ccc1F)c1ccc2c(c1)OC(F)(F)O2 (single isomer, unassigned) [101 (P1)]
C (RLU 0.0 μM-3.5 μM)	C[C@H](Nc1nc(-n2nc(C(F)(F)F)c3c2[C@H](OC24CC(C(=O)O)(C2)C4)CCC3)ccc1F)c1ccc2c(c1)OC(F)(F)O2 (single isomer, unassigned) [101 (P2)]
C (RLU 0.0 μM-3.5 μM)	C[C@H](Nc1cc(-n2nc(C(F)(F)F)c3c2[C@@H](OC24CC(c5nc(=O)o[nH]5)(C2)C4)CCC3)ccc1F)c1ccc2c(c1)OC(F)(F)O2 (single isomer, unassigned) [102 (P1)]
B (RLU 3.5 μM-5.0 μM)	C[C@H](Nc1cc(-n2nc(C(F)(F)F)c3c2[C@H](OC24CC(c5nc(=O)o[nH]5)(C2)C4)CCC3)ccc1F)c1ccc2c(c1)OC(F)(F)O2 (single isomer, unassigned) [102 (P2)]
B (RLU 3.5 μM-5.0 μM)	C[C@H](Nc1cc(-n2nc(C(F)(F)F)c3c2[C@@H](OC24CC(c5nc(=O)o[nH]5)(C2)C4)CCC3)ccc1F)c1cc2c(cc1F)OC(F)(F)O2 (single isomer, unassigned) [103 (P1)]
C (RLU 0.0 μM-3.5 μM)	C[C@H](Nc1cc(-n2nc(C(F)(F)F)c3c2[C@H](OC24CC(c5nc(=O)o[nH]5)(C2)C4)CCC3)ccc1F)c1cc2c(cc1F)OC(F)(F)O2 (single isomer, unassigned) [103 (P2)]
B (RLU 3.5 μM-5.0 μM)	C[C@H](Oc1cc(-n2nc(C#N)c3c2[C@@H](OC24CC(C(=O)O)(C2)C4)CCC3)ccc1F)c1ccc2c(c1)OC(F)(F)O2 (single isomer, unassigned) [105 (P1)]
B (RLU 3.5 μM-5.0 μM)	C[C@H](Oc1cc(-n2nc(C#N)c3c2[C@H](OC24CC(C(=O)O)(C2)C4)CCC3)ccc1F)c1ccc2c(c1)OC(F)(F)O2 (single isomer, unassigned) [105 (P2)]
B (RLU 3.5 μM-5.0 μM)	C[C@H](Nc1cc(-n2nc(C#N)c3c2[C@@H](OC24CC(C(=O)O)(C2)C4)CCC3)ccc1F)c1ccc2c(c1)OC(F)(F)O2 (single isomer, unassigned) [106 (P1)]
C (RLU 0.0 μM-3.5 μM)	C[C@H](Nc1cc(-n2nc(C#N)c3c2[C@H](OC24CC(C(=O)O)(C2)C4)CCC3)ccc1F)c1ccc2c(c1)OC(F)(F)O2 (single isomer, unassigned) [106 (P2)]
C (RLU 0.0 μM-3.5 μM)	C[C@H](Nc1cc(-n2nc(C#N)c3c2[C@@H](OC24CC(C(=O)O)(C2)C4)CCC3)ncc1F)c1ccc2c(c1)OC(F)(F)O2 (single isomer, unassigned) [107 (P1)]
C (RLU 0.0 μM-3.5 μM)	C[C@H](Nc1cc(-n2nc(C#N)c3c2[C@H](OC24CC(C(=O)O)(C2)C4)CCC3)ncc1F)c1ccc2c(c1)OC(F)(F)O2 (single isomer, unassigned) [107 (P2)]
C (RLU 0.0 μM-3.5 μM)	C[C@H](Nc1nc(-n2nc(C#N)c3c2[C@@H](OC24CC(C(=O)O)(C2)C4)CCC3)ccc1F)c1ccc2c(c1)OC(F)(F)O2 (single isomer, unassigned) [108 (P1)]
C (RLU 0.0 μM-3.5 μM)	C[C@H](Nc1nc(-n2nc(C#N)c3c2[C@H](OC24CC(C(=O)O)(C2)C4)CCC3)ccc1F)c1ccc2c(c1)OC(F)(F)O2 (single isomer, unassigned) [108 (P2)]
B (RLU 3.5 μM-5.0 μM)	C[C@H](Oc1cc(-n2nc(C(F)(F)F)c3c2[C@@H](Oc2ccc(C(=O)O)cc2)CN(C)C3)ccn1)c1ccc2c(c1)OC(F)(F)O2 (single isomer, unassigned) [115 (P1)]
C (RLU 0.0 μM-3.5 μM)	C[C@H](Oc1cc(-n2nc(C(F)(F)F)c3c2[C@H](Oc2ccc(C(=O)O)cc2)CN(C)C3)ccn1)c1ccc2c(c1)OC(F)(F)O2 (single isomer, unassigned) [115 (P2)]
B (RLU 3.5 μM-5.0 μM)	C[C@H](Oc1cccc(-n2nc(C(F)(F)F)c3c2[C@@H](C(=O)N2CCC(C(=O)O)CC2)CCC3)c1)c1ccc2c(c1)OC(F)(F)O2 (single isomer, unassigned) [120 (P1)]
C (RLU 0.0 μM-3.5 μM)	C[C@H](Oc1cccc(-n2nc(C(F)(F)F)c3c2[C@H](C(=O)N2CCC(C(=O)O)CC2)CCC3)c1)c1ccc2c(c1)OC(F)(F)O2 (single isomer, unassigned) [120 (P2)]
C (RLU 0.0 μM-3.5 μM)	C[C@H](Oc1cncc(-n2nc(C(F)(F)F)c3c2[C@@H](C(=O)N2CCC(C(=O)O)CC2)CCC3)c1)c1ccc2c(c1)OC(F)(F)O2 (single isomer, unassigned) [122 (P1)]
B (RLU 3.5 μM-5.0 μM)	C[C@H](Oc1cncc(-n2nc(C(F)(F)F)c3c2[C@H](C(=O)N2CCC(C(=O)O)CC2)CCC3)c1)c1ccc2c(c1)OC(F)(F)O2 (single isomer, unassigned) [122 (P2)]
B (RLU 3.5 μM-5.0 μM)	C[C@H](Oc1cncc(-n2nc(C(F)(F)F)c3c2[C@@H](CN2CCC(C(=O)O)CC2)CCC3)c1)c1ccc2c(c1)OC(F)(F)O2 (single isomer, unassigned) [124 (P1)]
